Measurements taken from the NIST ThermoML archive (doi:10.1021/acs.jced.6b00430).

Assay: xn = mol fraction of the nth substance listed
Conditions: 100 kPa, Liquid; for electrical conductivity: Alternating current cell with electrodes; for viscosity: Concentric cylinders viscometry; for mass density: Vibrating tube method

O=[PH](O)O [phosphonic acid] + CN(C)C=O
Conditions | electrical conductivity [S/m] | mass density [kg/m3] | viscosity [mPa·s]
298.15 K, x1 = 0.0911 | – | 992.53 | –
298.15 K, x1 = 0.1181 | 0.0572 | – | –
298.15 K, x1 = 0.1365 | – | 1016.46 | –
298.15 K, x1 = 0.1798 | – | 1040.55 | –
298.15 K, x1 = 0.1829 | – | 1041.85 | –
298.15 K, x1 = 0.1973 | – | – | 2.92
298.15 K, x1 = 0.2293 | – | 1069.29 | –
298.15 K, x1 = 0.2507 | – | – | 4.75
298.15 K, x1 = 0.291 | – | 1104.79 | –
298.15 K, x1 = 0.2984 | 0.0925 | – | 7.07
298.15 K, x1 = 0.3115 | – | – | 7.88
298.15 K, x1 = 0.3298 | 0.0934 | 1129.74 | –
298.15 K, x1 = 0.3442 | – | 1137.78 | –
298.15 K, x1 = 0.3491 | – | – | 11.5
298.15 K, x1 = 0.3712 | – | 1154.77 | –
298.15 K, x1 = 0.3937 | – | 1169.25 | –
298.15 K, x1 = 0.3968 | 0.129 | – | 17.6
298.15 K, x1 = 0.3988 | – | – | 17.8
298.15 K, x1 = 0.4107 | – | 1182.13 | 20.7
298.15 K, x1 = 0.421 | – | 1188.34 | –
298.15 K, x1 = 0.4479 | 0.141 | 1207.13 | 28.7
298.15 K, x1 = 0.4707 | – | 1221.83 | –
298.15 K, x1 = 0.493 | – | 1235.89 | –
298.15 K, x1 = 0.4968 | – | – | 41.6
298.15 K, x1 = 0.5074 | – | 1244.77 | 43.9
298.15 K, x1 = 0.5196 | – | 1255.1 | –
298.15 K, x1 = 0.5429 | – | 1270.6 | –
298.15 K, x1 = 0.5503 | – | – | 62.4
298.15 K, x1 = 0.5724 | – | 1292.1 | –
298.15 K, x1 = 0.5761 | 0.216 | – | 73.5
298.15 K, x1 = 0.5925 | – | 1306.05 | –
298.15 K, x1 = 0.5993 | – | – | 80.5
298.15 K, x1 = 0.6245 | – | 1328.62 | –
298.15 K, x1 = 0.6261 | – | – | 90
298.15 K, x1 = 0.6316 | 0.294 | – | 95.2
298.15 K, x1 = 0.6478 | – | – | 102.8
298.15 K, x1 = 0.6554 | 0.333 | 1355.76 | 103.3
298.15 K, x1 = 0.6753 | – | 1364.54 | –
298.15 K, x1 = 0.682 | 0.411 | – | 113.5
298.15 K, x1 = 0.6923 | – | 1378.85 | –
298.15 K, x1 = 0.7142 | – | 1399.02 | 122.7
298.15 K, x1 = 0.725 | – | 1401.52 | –
298.15 K, x1 = 0.7592 | – | 1432.85 | –
298.15 K, x1 = 0.7694 | 0.663 | 1444 | 139.8
298.15 K, x1 = 0.7832 | 0.702 | – | 142.5
298.15 K, x1 = 0.7845 | – | 1450.65 | –
308.15 K, x1 = 0.0911 | – | 983.17 | –
308.15 K, x1 = 0.1181 | 0.0647 | – | –
308.15 K, x1 = 0.1365 | – | 1007.16 | –
308.15 K, x1 = 0.1798 | – | 1031.35 | –
308.15 K, x1 = 0.1829 | – | 1032.63 | –
308.15 K, x1 = 0.1973 | – | – | 2.49
308.15 K, x1 = 0.2293 | – | 1060.16 | –
308.15 K, x1 = 0.2507 | – | – | 3.92
308.15 K, x1 = 0.291 | – | 1095.72 | –
308.15 K, x1 = 0.2984 | 0.116 | – | 5.72
308.15 K, x1 = 0.3115 | – | – | 6.3
308.15 K, x1 = 0.3298 | 0.119 | 1120.73 | –
308.15 K, x1 = 0.3442 | – | 1128.83 | –
308.15 K, x1 = 0.3491 | – | – | 9.06
308.15 K, x1 = 0.3712 | – | 1145.98 | –
308.15 K, x1 = 0.3937 | – | 1160.41 | –
308.15 K, x1 = 0.3968 | 0.169 | – | 13.3
308.15 K, x1 = 0.3988 | – | – | 14
308.15 K, x1 = 0.4107 | – | 1173.31 | 15.4
308.15 K, x1 = 0.421 | – | 1179.34 | –
308.15 K, x1 = 0.4479 | 0.19 | 1198.35 | 20.9
308.15 K, x1 = 0.4707 | – | 1213.06 | –
308.15 K, x1 = 0.493 | – | 1227.23 | –
308.15 K, x1 = 0.4968 | – | – | 29.2
308.15 K, x1 = 0.5074 | – | 1236.13 | 30.3
308.15 K, x1 = 0.5196 | – | 1246.49 | –
308.15 K, x1 = 0.5429 | – | 1262.02 | –
308.15 K, x1 = 0.5503 | – | – | 42.4
308.15 K, x1 = 0.5724 | – | 1283.54 | –
308.15 K, x1 = 0.5761 | 0.301 | – | 48.6
308.15 K, x1 = 0.5925 | – | 1297.57 | –
308.15 K, x1 = 0.5993 | – | – | 51
308.15 K, x1 = 0.6245 | – | 1320.2 | –
308.15 K, x1 = 0.6261 | – | – | 59.4
308.15 K, x1 = 0.6316 | 0.41 | – | 61.2
308.15 K, x1 = 0.6478 | – | – | 64.5
308.15 K, x1 = 0.6554 | 0.476 | 1347.39 | 66.1
308.15 K, x1 = 0.6753 | – | 1356.23 | –
308.15 K, x1 = 0.682 | 0.589 | – | 72.4
308.15 K, x1 = 0.6923 | – | 1370.56 | –
308.15 K, x1 = 0.7142 | – | 1390.77 | 78.3
308.15 K, x1 = 0.725 | – | 1393.35 | –
308.15 K, x1 = 0.7592 | – | 1424.69 | –
308.15 K, x1 = 0.7694 | 0.959 | 1435.87 | 87.4
308.15 K, x1 = 0.7832 | 1.02 | – | 88.2
308.15 K, x1 = 0.7845 | – | 1442.56 | –
318.15 K, x1 = 0.0911 | – | 973.7 | –
318.15 K, x1 = 0.1181 | 0.0725 | – | –
318.15 K, x1 = 0.1365 | – | 997.83 | –
318.15 K, x1 = 0.1798 | – | 1022.15 | –
318.15 K, x1 = 0.1829 | – | 1023.41 | –
318.15 K, x1 = 0.1973 | – | – | 2.16
318.15 K, x1 = 0.2293 | – | 1051.04 | –
318.15 K, x1 = 0.2507 | – | – | 3.35
318.15 K, x1 = 0.291 | – | 1086.67 | –
318.15 K, x1 = 0.2984 | 0.142 | – | 4.77
318.15 K, x1 = 0.3115 | – | – | 5.21
318.15 K, x1 = 0.3298 | 0.148 | 1111.75 | –
318.15 K, x1 = 0.3442 | – | 1119.89 | –
318.15 K, x1 = 0.3491 | – | – | 7.26
318.15 K, x1 = 0.3712 | – | 1137.21 | –
318.15 K, x1 = 0.3937 | – | 1151.58 | –
318.15 K, x1 = 0.3968 | 0.217 | – | 10.5
318.15 K, x1 = 0.3988 | – | – | 10.6
318.15 K, x1 = 0.4107 | – | 1164.51 | 12
318.15 K, x1 = 0.4479 | 0.25 | – | 15.8
318.15 K, x1 = 0.4968 | – | – | 21.2
318.15 K, x1 = 0.5074 | – | – | 22.2
318.15 K, x1 = 0.5503 | – | – | 30
318.15 K, x1 = 0.5761 | 0.397 | – | 34.1
318.15 K, x1 = 0.5993 | – | – | 35.2
318.15 K, x1 = 0.6261 | – | – | 41.2
318.15 K, x1 = 0.6316 | 0.548 | – | 42
318.15 K, x1 = 0.6478 | – | – | 43.6
318.15 K, x1 = 0.6554 | 0.626 | – | 45
318.15 K, x1 = 0.682 | 0.81 | – | 49
318.15 K, x1 = 0.7142 | – | – | 51.4
318.15 K, x1 = 0.7694 | 1.33 | – | 57.3
318.15 K, x1 = 0.7832 | 1.41 | – | 58.4
